Drawing on PubChem BioAssay (NCI), this text covers TGI for 11 molecules.

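In this assay, cells in 96-well plates receive the compound at five concentrations for 48 hours. Endpoints are linearly interpolated between the surrounding concentrations. TGI is the concentration that stops growth completely.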

Among the test systems are ACHN renal; HS 578T breast; K-562 leukemia; MDA-N; MOLT-4 leukemia; NCI-H226 lung; OVCAR-4 ovarian; OVCAR-5 ovarian; PC-3 prostate; RPMI-8226 leukemia; SF-268 CNS; SK-OV-3 ovarian; TK-10 renal; A498 renal.
What all share (assay): inhibition of tumour cell growth, NCI panel, 48 h

With `CCOc1nc2c(N3CCCC3)nc(N3CCNCC3)nc2nc1NCc1ccccc1`, the TGI stood at 4.55 µM with ACHN renal; 3.53 µM with HS 578T breast; 2.61 µM with K-562 leukemia; 2.31 µM in the assay with MDA-N; 2.8 µM with MOLT-4 leukemia; 3.82 µM in the assay on NCI-H226 lung. For the same molecule, the TGI in the assay on OVCAR-4 ovarian is 6.05 µM; with OVCAR-5 ovarian, 16.3 µM; in the assay on PC-3 prostate, 3.63 µM; in the assay with RPMI-8226 leukemia, 3.37 µM; with SF-268 CNS, 3.03 µM; in the assay on SK-OV-3 ovarian, 3.26 µM. The TGI in the assay on TK-10 renal turned out to be 5.58 µM.

In the case of `Cc1c(-c2ccccc2)[nH]c2cn[nH]c(=O)c12`, the TGI in the assay on A498 renal, in the assay with ACHN renal, in the assay with HS 578T breast, with K-562 leukemia, in the assay on MDA-N and with MOLT-4 leukemia was above 100 µM in each case. Besides, the TGI in the assay with OVCAR-5 ovarian, in the assay with PC-3 prostate, in the assay on RPMI-8226 leukemia, in the assay on SF-268 CNS, with SK-OV-3 ovarian and in the assay on TK-10 renal was above 100 µM each time.

For `C#C[C@]1(O)CC[C@H]2[C@@H]3CCc4cc(O)ccc4[C@H]3CC[C@@]21C`, the TGI in the assay on A498 renal is 77.4 µM; in the assay on ACHN renal, above 100 µM; in the assay on MOLT-4 leukemia, above 100 µM; with NCI-H226 lung, 92.8 µM; in the assay on OVCAR-5 ovarian it was above 100 µM; in the assay with SF-268 CNS it was above 100 µM. Further, the values for the TGI in the assay on SK-OV-3 ovarian and in the assay with TK-10 renal were 79.7 µM and above 100 µM, respectively.

For `C[C@@H]1CC[C@@H]2[C@@H](C1)O[C@@H]([C@@H](C)OCc1ccccc1)SC2(C)C`, the TGI amounted to 32 µM in the assay on A498 renal; 31.6 µM in the assay with ACHN renal; 36 µM with K-562 leukemia; 36.3 µM in the assay with MDA-N; 32.3 µM with MOLT-4 leukemia; 34.5 µM with NCI-H226 lung. Moreover, the TGI in the assay on OVCAR-4 ovarian came to 69.7 µM; with OVCAR-5 ovarian, 32.9 µM; in the assay on PC-3 prostate it was 45.4 µM; with RPMI-8226 leukemia, 35.4 µM; in the assay with SF-268 CNS it was 51.8 µM; in the assay on SK-OV-3 ovarian, 59.9 µM. The same molecule had a TGI in the assay on TK-10 renal of 55.4 µM.

For the molecule `C/C(C=O)=C/[C@@]1(C)O[C@@H](C)[C@@](C)(O)[C@@H]1O`, the TGI in the assay on A498 renal is above 100 µM; with ACHN renal, 44.4 µM; in the assay with HS 578T breast, above 100 µM; in the assay on K-562 leukemia it was above 100 µM; in the assay on MDA-N, above 100 µM; in the assay with MOLT-4 leukemia, 25.7 µM. The TGI in the assay with NCI-H226 lung is above 100 µM; in the assay with OVCAR-4 ovarian it was above 100 µM; in the assay with OVCAR-5 ovarian, above 100 µM; in the assay with PC-3 prostate, above 100 µM; in the assay with RPMI-8226 leukemia it was above 100 µM; in the assay with SF-268 CNS, 63.7 µM. Moreover, the TGI in the assay with SK-OV-3 ovarian and in the assay on TK-10 renal was above 100 µM in each case.

Turning to `CC(=O)Nc1cccc(N2C(=O)/C(=C\c3cccc(Oc4ccccc4)c3)SC2c2ccccc2)c1` (configuration not stated), the TGI with A498 renal, in the assay on ACHN renal, in the assay with HS 578T breast, with K-562 leukemia, with MDA-N and in the assay with MOLT-4 leukemia was above 100 µM throughout. Also, the TGI in the assay with NCI-H226 lung is above 100 µM; with OVCAR-4 ovarian it was above 100 µM; with OVCAR-5 ovarian it was above 100 µM; in the assay with RPMI-8226 leukemia, 89 µM; in the assay on SF-268 CNS, above 100 µM; in the assay with SK-OV-3 ovarian, above 100 µM. Also, in the assay with TK-10 renal, the TGI is above 100 µM.

Regarding `CCc1n[nH]c(=O)n1/N=C(\C)c1ccccc1`, the TGI in the assay on A498 renal, with ACHN renal, in the assay on HS 578T breast, with K-562 leukemia, with MDA-N and in the assay on MOLT-4 leukemia was above 100 µM in each case. Moreover, the TGI with NCI-H226 lung, with OVCAR-4 ovarian, with OVCAR-5 ovarian, with PC-3 prostate, in the assay with RPMI-8226 leukemia and in the assay with SF-268 CNS was above 100 µM throughout. In the assay with TK-10 renal, this molecule had a TGI above 100 µM.

With `O=C(Nc1ccccc1)Oc1ccc(C(=S)Nc2ccc(Br)cc2)cc1`, the TGI with A498 renal was 54.5 µM; in the assay with ACHN renal it was 97.9 µM; with HS 578T breast, above 100 µM; in the assay on K-562 leukemia, above 100 µM; with MDA-N it was 47.2 µM; in the assay with MOLT-4 leukemia, 66.2 µM. Further, the TGI in the assay on OVCAR-4 ovarian was 86.3 µM; with OVCAR-5 ovarian it was 46.4 µM; in the assay with PC-3 prostate, 89.8 µM; with RPMI-8226 leukemia, above 100 µM; in the assay with SF-268 CNS, above 100 µM; in the assay on SK-OV-3 ovarian, above 100 µM.

As for `CN1CCC(C(O)(c2ccccc2)c2ccc(Br)cc2)CC1` (configuration not stated), the TGI in the assay with ACHN renal is above 100 µM; with HS 578T breast, above 100 µM; in the assay with K-562 leukemia, 35.9 µM; with MDA-N it was 28.2 µM; in the assay on MOLT-4 leukemia, 61.3 µM; in the assay on NCI-H226 lung, 59.5 µM. For the same molecule, the TGI in the assay with OVCAR-4 ovarian is above 100 µM; with OVCAR-5 ovarian it was 93.3 µM; in the assay on PC-3 prostate it was above 100 µM; with RPMI-8226 leukemia, 45.8 µM; in the assay on SF-268 CNS it was above 100 µM; in the assay on SK-OV-3 ovarian, above 100 µM. In the assay with TK-10 renal, this molecule registered a TGI of 98.7 µM.

Regarding `CC(Oc1ccc(Cl)cc1Cl)C(=O)NN1C(=O)CC(=O)N(c2ccccc2)C1=S` (configuration not stated), the TGI with A498 renal was 95.1 µM; with ACHN renal, above 100 µM; in the assay on HS 578T breast it was above 100 µM; in the assay with K-562 leukemia it was above 100 µM; with MOLT-4 leukemia, above 100 µM; in the assay with NCI-H226 lung, above 100 µM. In addition, the TGI in the assay on OVCAR-4 ovarian, in the assay on OVCAR-5 ovarian, in the assay on PC-3 prostate, in the assay on RPMI-8226 leukemia, in the assay on SF-268 CNS and with SK-OV-3 ovarian was above 100 µM each time. Besides, the TGI with TK-10 renal was above 100 µM.

On to `CN(CCc1ccccn1)c1ccc2c(c1)C(=O)c1ccccc1-2`, for which the TGI in the assay on A498 renal, in the assay on ACHN renal, in the assay on HS 578T breast, in the assay with K-562 leukemia, with MDA-N and with NCI-H226 lung was above 100 µM throughout. For the same molecule, the TGI in the assay with OVCAR-4 ovarian, with OVCAR-5 ovarian, in the assay with PC-3 prostate, in the assay on RPMI-8226 leukemia, in the assay on SF-268 CNS and in the assay with SK-OV-3 ovarian was above 100 µM throughout. In addition, the TGI in the assay with TK-10 renal is above 100 µM.
